This is an account of results in ChEMBL document CHEMBL4342467, “Discovery of a Novel Dual-Target Inhibitor of ERK1 and ERK5 That Induces Regulated Cell Death to Overcome Compensatory Mechanism in Specific Tumor Types” (J Med Chem, 2020).

One assay relates to HL-60. Description: Antiproliferative activity against human HL60 cells assessed as reduction in cell viability measured after 24 hrs. Type of assay: functional, cell-based. Particulars: HL-60, 24 h.
Assay [1] addresses Mitogen-activated protein kinase 1 (Homo sapiens) (UniProt P28482). Description: Inhibition of ERK2 (unknown origin) at 1 uM by Z'-Lyte assay relative to control.
The next assay deals with MKN-74. Briefly: Antiproliferative activity against human MKN74 cells assessed as reduction in cell viability measured after 24 hrs. The class given is functional, cell-based. Particulars: MKN-74, 24 h.
For assay [2], the target named is Mitogen-activated protein kinase 3 (Homo sapiens) (UniProt P27361). Description: Inhibition of ERK1 (unknown origin) at 1 uM by Z'-Lyte assay relative to control.
The target in assay [3] is Mitogen-activated protein kinase 7 (Homo sapiens) (UniProt Q13164). Description: Inhibition of ERK5 (unknown origin) at 1 uM by Z'-Lyte assay relative to control.
In another assay the test system is HeLa. Briefly: Antiproliferative activity against human HeLa cells assessed as reduction in cell viability measured after 24 hrs. Type of assay: functional, cell-based.

Sequence of Mitogen-activated protein kinase 3 (Homo sapiens) (P27361 whole entry): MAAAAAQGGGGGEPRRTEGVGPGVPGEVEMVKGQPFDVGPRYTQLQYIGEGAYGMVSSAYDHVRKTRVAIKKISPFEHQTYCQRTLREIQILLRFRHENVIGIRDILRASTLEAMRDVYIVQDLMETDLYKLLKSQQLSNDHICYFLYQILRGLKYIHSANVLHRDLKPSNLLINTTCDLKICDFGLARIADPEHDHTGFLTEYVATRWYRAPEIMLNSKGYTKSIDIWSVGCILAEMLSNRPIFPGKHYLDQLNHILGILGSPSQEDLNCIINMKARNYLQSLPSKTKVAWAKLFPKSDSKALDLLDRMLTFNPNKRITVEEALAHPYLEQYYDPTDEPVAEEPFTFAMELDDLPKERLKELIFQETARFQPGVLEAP
Sequence of Mitogen-activated protein kinase 7 (Homo sapiens) (Q13164 2-816 limits assumed): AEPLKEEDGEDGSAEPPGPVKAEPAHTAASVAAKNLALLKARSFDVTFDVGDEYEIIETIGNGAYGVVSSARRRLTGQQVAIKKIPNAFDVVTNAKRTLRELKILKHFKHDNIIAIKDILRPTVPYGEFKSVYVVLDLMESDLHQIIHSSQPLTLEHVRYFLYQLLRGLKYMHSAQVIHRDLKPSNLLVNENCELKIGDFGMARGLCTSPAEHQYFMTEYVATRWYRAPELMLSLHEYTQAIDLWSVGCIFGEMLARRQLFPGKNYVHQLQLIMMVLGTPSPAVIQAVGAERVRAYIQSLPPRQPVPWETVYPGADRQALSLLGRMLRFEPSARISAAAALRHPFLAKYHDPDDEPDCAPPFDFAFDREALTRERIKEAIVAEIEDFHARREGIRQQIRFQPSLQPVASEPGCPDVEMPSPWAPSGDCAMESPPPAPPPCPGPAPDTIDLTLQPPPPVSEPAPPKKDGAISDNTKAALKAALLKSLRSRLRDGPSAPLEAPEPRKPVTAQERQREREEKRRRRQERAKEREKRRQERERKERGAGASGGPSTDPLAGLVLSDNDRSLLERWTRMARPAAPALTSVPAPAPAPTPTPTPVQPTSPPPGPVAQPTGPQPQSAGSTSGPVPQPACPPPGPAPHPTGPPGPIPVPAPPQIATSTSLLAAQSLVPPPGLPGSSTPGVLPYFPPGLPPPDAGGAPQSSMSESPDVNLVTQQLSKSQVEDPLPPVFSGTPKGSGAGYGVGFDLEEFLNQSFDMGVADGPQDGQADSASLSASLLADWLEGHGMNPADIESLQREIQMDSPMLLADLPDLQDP
Sequence of Mitogen-activated protein kinase 1 (Homo sapiens) (P28482 whole entry): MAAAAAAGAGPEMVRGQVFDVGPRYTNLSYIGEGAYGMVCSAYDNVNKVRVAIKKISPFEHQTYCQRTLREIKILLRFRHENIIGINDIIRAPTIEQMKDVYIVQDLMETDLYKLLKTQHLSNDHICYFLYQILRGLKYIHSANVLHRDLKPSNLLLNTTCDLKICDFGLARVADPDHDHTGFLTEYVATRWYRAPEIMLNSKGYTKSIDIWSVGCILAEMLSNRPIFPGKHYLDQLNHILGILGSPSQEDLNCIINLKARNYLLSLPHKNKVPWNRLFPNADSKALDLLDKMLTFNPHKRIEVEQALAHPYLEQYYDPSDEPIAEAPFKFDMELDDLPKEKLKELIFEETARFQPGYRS

A word on the IC50: it is the midpoint of a concentration-inhibition curve. By inhibition is commonly meant the drop in the measured response relative to a control, in per cent. A higher inhibition goes with a strong effect. With `NC(=O)c1c(NC(=O)c2ccc[nH]2)sc2c1CCN(C(=S)Nc1cccnc1)C2`, the IC50 was greater than 50 µM with HL-60, greater than 50 µM in the assay with MKN-74 and 47.4 µM with HeLa. The inhibition in assay [1] worked out at 79.7%; in assay [2], 74.4%; in assay [3] it was 48.6%.

Take `Cc1ccccc1NC(=S)N1CCc2c(sc(NC(=O)c3ccccc3C)c2C(N)=O)C1`: the IC50 in the assay with HL-60, in the assay on MKN-74 and in the assay on HeLa was greater than 50 µM each time. Also, the inhibition was 43% in assay [1], 48.3% in assay [2] and 37.1% in assay [3].

For `Cc1ccccc1NC(=S)N1CCc2c(sc(NC(=O)c3ccccc3Br)c2C(N)=O)C1`, the IC50 in the assay on HL-60, in the assay with MKN-74 and in the assay on HeLa was greater than 50 µM each time. Further, the inhibition in assay [1] came to 60.8%; in assay [2] it was 65.1%; in assay [3], 46.7%.

As to `NC(=O)c1c(NC(=O)c2cccc([N+](=O)[O-])c2)sc2c1CCN(Cc1c(Cl)cccc1Cl)C2`, the IC50 with HL-60 came out at 18.4 µM; with MKN-74 it was 13.5 µM; with HeLa, 46.1 µM. Moreover, the inhibition came out at 29.3% in assay [1], 31.6% in assay [2] and 45.2% in assay [3].

As to `NC(=O)c1c(NC(=O)c2ccc(C(F)(F)F)cc2)sc2c1CCN(C(=O)Nc1ccccc1Cl)C2`, the IC50 in the assay on HL-60 was greater than 50 µM; in the assay with MKN-74, 43.9 µM; with HeLa, greater than 50 µM. Further, the values for the inhibition in assay [1], in assay [2] and in assay [3] were 77.6%, 78.3% and 62.2%, respectively.

On to `NC(=O)c1c(NC(=O)c2cccc([N+](=O)[O-])c2)sc2c1CCN(C(=S)Nc1cc(C(F)(F)F)cc(C(F)(F)F)c1)C2`, for which the IC50 in the assay with HL-60 was 16.4 µM; in the assay on MKN-74, 25.8 µM; in the assay on HeLa, 27.2 µM. The results for the inhibition in assay [1], in assay [2] and in assay [3] were 75%, 80.2% and 82.9%, respectively.

As for `NC(=O)c1c(NC(=O)c2ccccc2)sc2c1CCN(C(=S)Nc1ccccc1Cl)C2`, the IC50 in the assay on HL-60 was 13.8 µM; in the assay on MKN-74, 11.8 µM; in the assay on HeLa, greater than 50 µM. Besides, the inhibition was 77.5% in assay [1], 73.8% in assay [2] and 58.9% in assay [3].

For `NC(=O)c1c(NC(=O)c2ccc(C(F)(F)F)cc2)sc2c1CCN(C(=S)Nc1cc(C(F)(F)F)cc(C(F)(F)F)c1)C2`, the figures for the IC50 in the assay with HL-60, with MKN-74 and in the assay on HeLa were 16.3 µM, 13.8 µM and 49 µM, respectively. In addition, the inhibition was determined as 66% in assay [1], 79.4% in assay [2] and 54.2% in assay [3].

Regarding `NC(=O)c1c(NC(=O)c2ccccc2Cl)sc2c1CCN(C(=S)Nc1ccccc1-c1ccccc1)C2`, the values for the IC50 in the assay with HL-60, in the assay on MKN-74 and in the assay on HeLa were 34.4 µM, 25.8 µM and 24.9 µM, respectively. Besides, the inhibition turned out to be 64.7% in assay [1], 60.9% in assay [2] and 40.5% in assay [3].

As to `Cc1ccccc1NC(=S)N1CCc2c(sc(NC(=O)c3ccccc3Cl)c2C(N)=O)C1`, the IC50 in the assay on HL-60 is 22.6 µM; in the assay on MKN-74 it was 11.7 µM; in the assay with HeLa it was greater than 50 µM. The inhibition in assay [1] is 72.8%; in assay [2], 68.4%; in assay [3], 59.3%.

On to `NC(=O)c1c(NC(=O)c2ccc(C(F)(F)F)cc2)sc2c1CCN(C(=S)Nc1ccc(C(F)(F)F)cc1)C2`, for which the IC50 is 5.52 µM with HL-60, 12.2 µM in the assay with MKN-74 and greater than 50 µM in the assay with HeLa. For the same molecule, the inhibition in assay [1] amounted to 79.7%; in assay [2], 82.5%; in assay [3], 57.9%.

Turning to `NC(=O)c1c(NC(=O)c2ccccc2Cl)sc2c1CCN(C(=S)Nc1ccc(C(F)(F)F)cc1)C2`, the IC50 was 7.59 µM in the assay with HL-60, 7.09 µM in the assay with MKN-74 and greater than 50 µM with HeLa. The inhibition in assay [1] came to 54.4%; in assay [2], 80.5%; in assay [3] it was 57.4%.
